# Assays:
# dLight1.3b = test: In vivo single-fiber photometry of dLight1.3b baseline in freely-moving mice; set-up: species or system mouse; conditions: DETQ 10 mg/kg i.p.
# Experimental: For combined locomotion/photometry experiments in the open field (OF) in tethered mice, a 50 × 50 cm arena was used. Fiber photometry was conducted using a Doric photometry rig combined with a filter/mirror minicube set (Doric Lenses), as above. […] Data were sampled at 122 Hz. […] Mice were habituated to the chamber for 3 consecutive days (30 minutes per day). On experimental days, locomotor activity was video recorded and synchronized with fiber photometry signal recording. […] The OF chamber was cleaned with ethanol and water between mice. Recording sessions were repeated at 48 hours intervals. Mouse behavior as well as photometry signals were analyzed with a custom-written MATLAB script. Mouse locomotion was computed using the body center point of the animal. The center zone of the arena was defined automatically during behavior data analysis as the 25 × 25 cm square with the central point aligned to the center of the open field. […] Videos were recorded with a Logitech C270 camera and analyzed with DeepLabCut (version 2.1.8.2)[84] on an existing open field network. Representative traces were generated with the Anymaze (v7.2) software (Stoelting Co.).
# [1] = In vivo pharmacokinetics, free brain concentration (LC/MS); set-up: species or system mouse; conditions: 10 mg/kg i.p.
# Experimental: To measure free brain and plasma concentrations of DETQ in the mouse, male C57Bl6/N mice from Taconic Biosciences (Germantown, NY, USA) weighing 23–25 g (9–10 weeks old) were used for this study. The animals were acclimated for at least 72 hours after arrival from the breeder and housed five per cage in “shoe box” size cages with free access to food and water (lights on from 5 am to 5 pm) before use. The experiment was approved by the Institutional IACUC committee, and Eli Lilly is an AAALAC-certified facility. DETQ (Eli Lilly, see above) was formulated as a fine suspension in 20% HPBCD in purified water using ultrasonication. The drug was administered intraperitoneally at 10 mg/kg body weight (10 mL/kg. dose volume) with four animals per time point (0.25, 0.5, 0.75, 1, 1.5, and 2 hr). The animals were decapitated at the time points indicated above, and their frontal brains (mainly frontal cortex) were rapidly dissected and frozen. Blood was collected at decapitation, and plasma was separated by centrifugation. Both samples were then stored at −80 °C until further analysis. DETQ concentrations were measured in plasma and brain tissues by liquid chromatography with tandem mass spectrometry (LC/MS). The samples were analyzed using an AB Sciex API 4000 quadrupole mass spectrometer (Applied Biosystems, Foster City, CA) with a TurboIonSpray interface. Brain samples were homogenized in a methanol-water solution (20:80) using a probe sonicator. Both brain and plasma samples underwent extraction procedures. Calibration curves were established by spiking blank plasma or brain samples with an internal standard. The system utilized Shimadzu LC-10AD pumps controlled by an SCL-10A controller (Kyoto, Japan). Sample injections were performed by a Z-215 liquid handler (Gilson, Middleton, WI). Chromatographic separation of all compounds was achieved using a Betasil javelin C18 HPLC column, 20 mm × 2.1 mm, 5 μm (Thermo Fisher Scientific, Waltham, MA). The unbound fraction in brain tissue samples was determined by equilibrium dialysis in mouse brain homogenate mixtures after incubation of the compound for 4.5 hours. The unbound brain concentrations were calculated from the following equation[24]: Totalbrainconcentration*Unboundfractioninbrain=Unboundbrainconcentration(Cu,brain)
# hmDRD1 = hmDRD1 (Homo sapiens, UniProt P21728); test: NanoBit complementation assay of mini-Gs recruitment; type: cell-based
# Experimental: (§1) To measure the effect of DETQ on mini-G protein recruitment by different GPCRs we used a Nanoluciferase (NanoBit)-based complementation assay[26],[27]. For this HEK293T cells were seeded in six-well plates (Techno Plastic Products) at a density of 300,000 cells per well and co-transfected with plasmids encoding either hmDRD1, msDRD1, msDRD2, msDRD5, msADRA1a, msβ2AR or ms5HT6 carrying a C-terminally fused SmBiT, in combination with the corresponding mini-G protein probe[78] (mini-Gs: for DRD1, DRD5, β2AR, 5HT6R; mini-Gq: for ADRA1a; or mini-Gi: for DRD2), which were N-terminally fused to LgBiT, in a 1:1 DNA ratio using Effectene transfection reagent (Qiagen). 24 h after transfection cells were detached using Versene (ThermoFisher Scientific), washed, centrifuged (RT, 150 g, 3 min), and resuspended (0.5 × 10^6 cells ml^−1) in Fluorobrite DMEM (ThermoFisher Scientific) complemented with 30 mM HEPES (ThermoFisher Scientific). First, 95 µl of the cell suspension were added into each well of a white flat-bottom 96-well OptiPlate (PerkinElmer), then 25 µl of a 20-fold dilution of Nano-Glo reagent in LCS buffer (Promega) and last either 5 ul of pure Fluorobrite-DMEM or 5 ul of DETQ diluted in Fluorobrite DMEM (final concentration 100 nM for DRD1; 1 µM for all other receptors). The plate was incubated at 37 °C for 30 min, before the luminescence signal was measured at 37 °C using a Tecan Spark plate reader before and after the manual addition of 25 µl of either ligand solution (final concentrations ranging from 1 nM to 100 µM), pure Fluorobrite-DMEM or 25 µl of a DETQ solution (1 µM final concentration).
# (§2) For in vitro luminescence assays, ligand traces were divided by buffer traces, the area under the curve for each trace was calculated using GraphPad Prism, values were normalized and fitted as dose response curve. The change in luminescence (∆L/L0) upon addition of different ligands was calculated as follows: (Lt – L0)/L0, with Lt being the Luminescence at ten timepoints t immediately after ligand application, and L0 being the luminescence of ten timepoints before ligand application. The statistical significance was determined using Welch’s ANOVA followed by Dunnett’s multiple comparison test (comparison of ligand or vehicle to ligand). For ex vivo imaging experiments, statistical analyses were performed in Prism (GraphPad) using independent samples t-test or nonparametric Mann-Whitney U-test when assumption of normality was violated (assessed using Schapiro-Wilk’s test). Curve fitting parameters were compared by extra sum-of-squares F test. For in vivo imaging experiments, statistical tests were paired and unpaired t-tests (two-tailed) and repeated-measures ANOVA for parametric data, while they were Wilcoxon rank sum tests or Mann-Whitney for non-parametric data. Sidak or Tukey post-hoc tests correcting for multiple comparisons were used in the case of significant interactions in ANOVA. All p-values are indicated in the Results section. […] No statistical methods were used to predetermine sample size. No data were excluded from the analyses. Group allocations used in this study were randomly assigned to animals and/or cultured cells. The Investigators were not blinded to allocation during experiments and outcome assessment.
# ms5HT6 = target: T1, ms5HT6 (Mus musculus, UniProt Q9R1C8); test: as above; type: cell-based
# T1 construct: expressed in transfected cells; host or cells: HEK293T
# Experimental: as §1, §2
# T1 sequence (Q9R1C8 whole entry): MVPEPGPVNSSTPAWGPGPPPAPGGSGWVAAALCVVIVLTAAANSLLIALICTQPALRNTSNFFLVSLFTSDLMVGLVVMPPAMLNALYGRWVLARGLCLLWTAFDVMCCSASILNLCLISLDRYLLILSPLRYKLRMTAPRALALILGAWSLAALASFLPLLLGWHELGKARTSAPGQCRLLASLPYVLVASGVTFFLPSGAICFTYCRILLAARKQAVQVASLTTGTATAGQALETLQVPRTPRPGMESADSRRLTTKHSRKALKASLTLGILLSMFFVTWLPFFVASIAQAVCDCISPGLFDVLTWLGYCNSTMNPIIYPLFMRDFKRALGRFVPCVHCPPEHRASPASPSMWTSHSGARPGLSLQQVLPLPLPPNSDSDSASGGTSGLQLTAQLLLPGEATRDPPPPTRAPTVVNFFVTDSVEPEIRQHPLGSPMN
# Sequence of hmDRD1 (P21728 whole entry, the tested form may be a part): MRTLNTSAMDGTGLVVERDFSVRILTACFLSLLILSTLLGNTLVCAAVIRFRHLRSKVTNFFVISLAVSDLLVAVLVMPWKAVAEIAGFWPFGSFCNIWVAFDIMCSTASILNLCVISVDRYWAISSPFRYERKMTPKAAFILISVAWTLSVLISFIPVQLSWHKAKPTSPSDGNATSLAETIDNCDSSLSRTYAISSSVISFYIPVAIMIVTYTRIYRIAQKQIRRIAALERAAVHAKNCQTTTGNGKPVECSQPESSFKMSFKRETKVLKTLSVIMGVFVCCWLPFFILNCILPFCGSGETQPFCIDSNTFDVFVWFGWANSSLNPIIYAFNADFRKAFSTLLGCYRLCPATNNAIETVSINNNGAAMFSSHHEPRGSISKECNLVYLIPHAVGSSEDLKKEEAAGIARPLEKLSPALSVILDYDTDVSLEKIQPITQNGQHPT
compound,measurement,setting,value
"C[C@H]1c2cccc(C(C)(C)O)c2C[C@H](CO)N1C(=O)Cc1c(Cl)cccc1Cl [DETQ, 2-(2,6-dichlorophenyl)-1-((1S,3R)-3-(hydroxymethyl)-5-(2-hydroxypropan-2-yl)-1-methyl-3,4-dihydroisoquinolin-2(1H)-yl)ethan-1-one]",increase in sensor baseline,dLight1.3b; NAc,15–20 % ∆F/F0
same,increase in sensor baseline,dLight1.3b; PFC,2–4 % ∆F/F0
same,clearance from the brain,[1]; 2 hours post-injection,almost completely cleared
same,concentration at 1 h,"[1]; male, C57Bl6/N, mouse, brain (frontal brain, unbound concentration), intraperitoneal, 1-hour post-injection, read-out: free brain level",< 50 nM
same,concentration at 15 min,"[1]; male, C57Bl6/N, mouse, brain (frontal brain, unbound concentration), intraperitoneal, 15 minutes after dosing, read-out: free brain level",~270 nM
same,concentration at 45 min,"[1]; male, C57Bl6/N, mouse, brain (frontal brain, unbound concentration), intraperitoneal, 45 minutes post-injection, read-out: free brain level",~110 nM
same,allosteric modulator mode: potentiation of mini-Gs recruitment during DA titration,hmDRD1; DETQ 100 nM,strong and significant potentiation
same,agonist mode: direct agonist effect,hmDRD1; DETQ 1 µM alone,no direct agonist effect
same,agonist mode: direct agonist effect,ms5HT6; DETQ 1 µM alone,no direct agonist effect
same,allosteric modulator mode: effect on agonist dose-response,"ms5HT6; DETQ 1 µM, 5HT",No allosteric effect

# — publication PMC11219860, “A chemogenetic approach for dopamine imaging with tunable sensitivity” (Nature Communications, 2024)
